Data taken from US7994185B2, “Benzene sulfonamide thiazole and oxazole compounds” (Glaxo Smith Kline LLC, priority 2008, dated 2011).
Where a name gives a salt, the structure may show the parent alone. Read-outs that look alike come from different tables or passages of the source.

Key:
[1] = target: T1, BRAFV600E full-length (amino acids 2-766) (Homo sapiens, UniProt P15056, V600E); experiment: B-Raf Accelerated MEK ATPase assay (BRAMA); format: biochemical
T1 construct: His6-tagged BRAFV600E full-length (amino acids 2-766); His6; made in house; host or cells: baculovirus expression system (insect cells)
T1 sequence (P15056 2-766 V600E): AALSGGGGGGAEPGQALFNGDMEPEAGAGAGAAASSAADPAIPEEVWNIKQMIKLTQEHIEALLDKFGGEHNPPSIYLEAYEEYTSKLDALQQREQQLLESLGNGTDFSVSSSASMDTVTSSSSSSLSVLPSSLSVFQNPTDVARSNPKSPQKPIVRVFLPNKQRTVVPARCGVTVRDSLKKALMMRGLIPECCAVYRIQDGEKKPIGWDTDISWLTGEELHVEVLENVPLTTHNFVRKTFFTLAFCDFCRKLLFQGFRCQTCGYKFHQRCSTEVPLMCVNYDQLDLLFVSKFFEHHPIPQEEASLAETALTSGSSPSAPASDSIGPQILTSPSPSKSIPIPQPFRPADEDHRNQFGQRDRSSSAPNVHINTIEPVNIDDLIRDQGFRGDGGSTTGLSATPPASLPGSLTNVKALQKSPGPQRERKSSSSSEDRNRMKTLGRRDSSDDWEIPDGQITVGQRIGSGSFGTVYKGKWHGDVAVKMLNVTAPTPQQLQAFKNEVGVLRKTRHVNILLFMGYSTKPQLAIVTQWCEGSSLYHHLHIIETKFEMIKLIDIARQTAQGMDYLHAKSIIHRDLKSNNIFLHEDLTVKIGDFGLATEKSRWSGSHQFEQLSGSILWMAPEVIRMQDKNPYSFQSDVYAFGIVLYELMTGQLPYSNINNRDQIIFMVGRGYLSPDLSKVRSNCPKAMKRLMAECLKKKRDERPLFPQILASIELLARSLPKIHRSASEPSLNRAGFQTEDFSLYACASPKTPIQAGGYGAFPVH
Method in brief: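 Coupled-enzyme readout: ADP generated by MEK-mediated ATP hydrolysis, uncoupled from ERK phosphorylation, is linked to NADH oxidation through pyruvate kinase and lactate dehydrogenase.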

[2] = test system: Human colon tumor cells (Colo205); experiment: Cell growth inhibition assay (CellTiter-Glo), Colo205; format: cell-based
Method in brief: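 Colo205 (and SK-MEL-28) cells in RPMI with 10% FBS were exposed to 10-point 1:3 serial dilutions of compound at 0.2% final DMSO for 3 days at 37 °C. Total ATP, a surrogate for cell number, was read by CellTiter-Glo luminescence, with % growth inhibition relative to DMSO-treated wells.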

[3] = test system: Human melanoma cancer cells (SK-MEL-28); experiment: Cell growth inhibition assay (CellTiter-Glo), SK-MEL-28; format: cell-based
[4] = B-Raf Activity, Table 1a, highest pIC50 for the one or more runs, categorized
[5] = B-Raf pIC50, Table 1b, later runs, average pIC50 for the one or more runs, categorized
[6] = COLO 205, 72 h, Table 2a, 3 days incubation, read-out: Activity in Colo205 Tumor Cells
[7] = COLO 205, Table 2b, later runs, average for the one or more runs, categorized, read-out: IC50 for Colo205
[8] = SK-MEL-28, 72 h, Table 3a, 3 days incubation, read-out: Activity in SK-MEL-28 Tumor Cells
[9] = SK-MEL-28, Table 3b, later runs, average for the one or more runs, categorized, read-out: IC50 for SK-MEL-28
[10] = Table 1b, later runs, average pIC50 for the one or more runs, categorized, read-out: B-Raf pIC50 (converted)

Structure (SMILES) | IC50 [1, 4] | IC50 [1, 5] | IC50 [2, 6] | IC50 [2, 7] | IC50 [3, 8] | IC50 [3, 9] | IC50 [1, 10] | IC50 [1]
CC(C)c1nc(-c2ccc(F)c(NS(=O)(=O)c3c(F)cccc3F)c2)c(-c2ccnc(NCCN(C)C)n2)s1 [Example 161] | 100 to 1000 nM | 31.6 to 1000 nM | > 1000 nM | 1000 to 10000 nM | > 1000 nM | 1000 to 10000 nM | – | –
CC(C)(O)CCc1nccc(-c2sc(C(C)(C)C)nc2-c2cccc(NS(=O)(=O)c3cc(F)ccc3F)c2F)n1 [Example 250, N-(3-{2-(1,1-dimethylethyl)-5-[2-(3-hydroxy-3-methylbutyl)-4-pyrimidinyl]-1,3-thiazol-4-yl}-2-fluorophenyl)-2,5-difluorobenzenesulfonamide] | – | – | – | < 100 nM | – | 100 to 1000 nM | 3.16 to 31.6 nM | –
Nc1nccc(-c2sc(C3CCOCC3)nc2-c2cccc(NS(=O)(=O)c3cc(F)ccc3F)c2Cl)n1 [Example 242, N-{3-[5-(2-amino-4-pyrimidinyl)-2-(tetrahydro-2H-pyran-4-yl)-1,3-thiazol-4-yl]-2-chlorophenyl}-2,5-difluorobenzenesulfonamide] | – | ≤ 3.16 nM | – | < 100 nM | – | < 100 nM | – | –
CC(C)(C)c1nc(-c2c(F)ccc(NS(=O)(=O)c3cccc(F)c3)c2F)c(-c2ccnc(N)n2)s1 [Example 157] | < 100 nM | ≤ 3.16 nM | < 100 nM | < 100 nM | < 100 nM | < 100 nM | – | –
CC(C)(C)c1nc(-c2cccc(NS(=O)(=O)C3CCCCC3)c2F)c(-c2ccnc(N)n2)s1 [Example 63, N-{3-[5-(2-Amino-4-pyrimidinyl)-2-(1,1-dimethylethyl)-1,3-thiazol-4-yl]-2-fluorophenyl}cyclohexanesulfonamide] | 100 to 1000 nM | 31.6 to 1000 nM | 100 to 1000 nM | 100 to 1000 nM | 100 to 1000 nM | 100 to 1000 nM | – | –
CC(C)c1nc(-c2ccc(F)c(NS(=O)(=O)c3ccc(F)cc3F)c2)c(-c2ccnc(NCCS(C)(=O)=O)n2)s1 [Example 29, 2,4-Difluoro-N-{2-fluoro-5-[2-(1-methylethyl)-5-(2-{[2-(methylsulfonyl)ethyl]amino}-4-pyrimidinyl)-1,3-thiazol-4-yl]phenyl}benzenesulfonamide] | < 100 nM | – | 100 to 1000 nM | 100 to 1000 nM | 100 to 1000 nM | 100 to 1000 nM | 3.16 to 31.6 nM | –
CC(C)c1nc(-c2cccc(NS(=O)(=O)c3cccc(F)c3)c2)c(-c2ccnc(NCC(=O)O)n2)s1 [Example 85, N-{4-[4-(3-{[(3-Fluorophenyl)sulfonyl]amino}phenyl)-2-(1-methylethyl)-1,3-thiazol-5-yl]-2-pyrimidinyl}glycine] | 100 to 1000 nM | 31.6 to 1000 nM | > 1000 nM | – | > 1000 nM | – | – | –
Nc1nccc(-c2sc(C3CCOC3)nc2-c2cccc(NS(=O)(=O)c3c(F)cccc3F)c2F)n1 (stereo not drawn) [Example 71, N-{3-[5-(2-Amino-4-pyrimidinyl)-2-(tetrahydro-3-furanyl)-1,3-thiazol-4-yl]-2-fluorophenyl}-2,6-difluorobenzenesulfonamide] | < 100 nM | – | 100 to 1000 nM | 100 to 1000 nM | 100 to 1000 nM | 100 to 1000 nM | 3.16 to 31.6 nM | –
CC(C)(C)c1nc(-c2cccc(NS(=O)(=O)c3cc(F)ccc3F)c2F)c(-c2ccnc(NCCO)n2)s1 [Example 210] | < 100 nM | ≤ 3.16 nM | < 100 nM | < 100 nM | < 100 nM | < 100 nM | – | –
CC(C)c1nc(-c2ccc(F)c(NS(=O)(=O)c3c(F)cccc3F)c2)c(-c2ccnc(NCCO)n2)s1 [Example 160] | 100 to 1000 nM | 31.6 to 1000 nM | 100 to 1000 nM | 100 to 1000 nM | 100 to 1000 nM | 100 to 1000 nM | – | –
CC(C)c1nc(-c2cccc(NS(=O)(=O)c3cc(F)ccc3F)c2F)c(-c2ccnc(NCCN3CCCC3=O)n2)s1 [Example 190] | < 100 nM | ≤ 3.16 nM | < 100 nM | < 100 nM | < 100 nM | < 100 nM | – | –
CC(C)(C)c1nc(-c2cccc(NS(=O)(=O)c3cccs3)c2F)c(-c2ccnc(N)n2)s1 [Example 232, N-{3-[5-(2-amino-4-pyrimidinyl)-2-(1,1-dimethylethyl)-1,3-thiazol-4-yl]-2-fluorophenyl}-2-thiophenesulfonamide] | – | ≤ 3.16 nM | – | < 100 nM | – | < 100 nM | – | –
CC(C)(C)c1nc(-c2cccc(NS(=O)(=O)c3ccoc3)c2F)c(-c2ccnc(N)n2)s1 [Example 234, N-{3-[5-(2-amino-4-pyrimidinyl)-2-(1,1-dimethylethyl)-1,3-thiazol-4-yl]-2-fluorophenyl}-3-furansulfonamide] | – | ≤ 3.16 nM | – | < 100 nM | – | < 100 nM | – | –
CNc1nccc(-c2sc(C(C)C)nc2-c2cccc(NS(=O)(=O)c3cccc(F)c3)c2)n1 [Example 86, 3-Fluoro-N-{3-[5-[2-(methylamino)-4-pyrimidinyl]-2-(1-methylethyl)-1,3-thiazol-4-yl]phenyl}benzenesulfonamide] | < 100 nM | 31.6 to 1000 nM | > 1000 nM | 1000 to 10000 nM | > 1000 nM | 1000 to 10000 nM | – | –
CC(C)CNc1nccc(-c2sc(C(C)(C)C)nc2-c2cccc(NS(=O)(=O)c3cc(F)ccc3F)c2F)n1 [Example 92, N-[3-(2-(1,1-Dimethylethyl)-5-{2-[(2-methylpropyl)amino]-4-pyrimidinyl}-1,3-thiazol-4-yl)-2-fluorophenyl]-2,5-difluorobenzenesulfonamide] | < 100 nM | – | < 100 nM | < 100 nM | < 100 nM | < 100 nM | 3.16 to 31.6 nM | –
CC(C)(C)c1nc(-c2cccc(NS(=O)(=O)c3cc(F)ccc3F)c2F)c(-c2ccnc(CCCl)n2)s1 [Example 217] | < 100 nM | ≤ 3.16 nM | – | < 100 nM | – | < 100 nM | – | –
COc1ccc(F)cc1S(=O)(=O)Nc1cccc(-c2nc(C(C)C)sc2-c2ccnc(NC3CCN(S(C)(=O)=O)CC3)n2)c1 [Example 150] | 100 to 1000 nM | 31.6 to 1000 nM | 100 to 1000 nM | 100 to 1000 nM | 100 to 1000 nM | 100 to 1000 nM | – | –
CC(C)c1nc(-c2ccc(F)c(NS(=O)(=O)c3c(F)cccc3F)c2)c(-c2ccnc(NCCC(F)(F)F)n2)s1 [Example 180] | < 100 nM | – | 100 to 1000 nM | 100 to 1000 nM | 100 to 1000 nM | 100 to 1000 nM | 3.16 to 31.6 nM | –
CC(C)c1nc(-c2ccc(F)c(NS(=O)(=O)c3c(F)cccc3F)c2)c(-c2ccnc(NCCCCN(C)C)n2)s1 [Example 167] | – | 31.6 to 1000 nM | 100 to 1000 nM | 100 to 1000 nM | > 1000 nM | 1000 to 10000 nM | – | –
Nc1nccc(-c2sc(N3CCOCC3)nc2-c2cccc(NS(=O)(=O)C3CC3)c2F)n1 [Example 51, N-{3-[5-(2-Amino-4-pyrimidinyl)-2-(4-morpholinyl)-1,3-thiazol-4-yl]-2-fluorophenyl}cyclopropanesulfonamide] | – | – | > 1000 nM | 1000 to 10000 nM | > 1000 nM | 1000 to 10000 nM | – | > 1000 nM
Cc1nccc(-c2sc(N3CCOCC3)nc2-c2cccc(NS(=O)(=O)c3ccoc3)c2Cl)n1 [Example 271, N-{2-chloro-3-[5-(2-methyl-4-pyrimidinyl)-2-(4-morpholinyl)-1,3-thiazol-4-yl]phenyl}-3-furansulfonamide] | – | – | – | 100 to 1000 nM | – | < 100 nM | 3.16 to 31.6 nM | –
CC(C)c1nc(-c2cccc(NS(=O)(=O)c3ccco3)c2)c(-c2ccnc(NCCS(C)(=O)=O)n2)s1 [Example 30, N-{3-[2-(1-Methylethyl)-5-(2-{[2-(methylsulfonyl)ethyl]amino}-4-pyrimidinyl)-1,3-thiazol-4-yl]phenyl}-2-furansulfonamide] | < 100 nM | ≤ 3.16 nM | < 100 nM | < 100 nM | < 100 nM | < 100 nM | – | –
CS(=O)(=O)N1CCC(Nc2nccc(-c3sc(C4CCC4)nc3-c3ccc(F)c(NS(=O)(=O)c4cc(F)ccc4F)c3)n2)CC1 [Example 80, N-{5-[2-Cyclobutyl-5-(2-{[1-(methylsulfonyl)-4-piperidinyl]amino}-4-pyrimidinyl)-1,3-thiazol-4-yl]-2-fluorophenyl}-2,5-difluorobenzenesulfonamide] | < 100 nM | – | 100 to 1000 nM | 100 to 1000 nM | 100 to 1000 nM | 100 to 1000 nM | 3.16 to 31.6 nM | –
Cn1ccnc1S(=O)(=O)Nc1cccc(-c2nc(C(C)(C)C)sc2-c2ccnc(N)n2)c1F [Example 287, N-{3-[5-(2-amino-4-pyrimidinyl)-2-(1,1-dimethylethyl)-1,3-thiazol-4-yl]-2-fluorophenyl}-1-methyl-1H-imidazole-2-sulfonamide hydrochloride] | – | – | – | 100 to 1000 nM | – | 100 to 1000 nM | 3.16 to 31.6 nM | –
CS(=O)(=O)N1CCC(Nc2nccc(-c3sc(N4CCOCC4)nc3-c3cccc(NS(=O)(=O)c4cc(F)ccc4F)c3F)n2)CC1 [Example 82, 2,5-Difluoro-N-{2-fluoro-3-[5-(2-{[1-(methylsulfonyl)-4-piperidinyl]amino}-4-pyrimidinyl)-2-(4-morpholinyl)-1,3-thiazol-4-yl]phenyl}benzenesulfonamide] | – | – | < 100 nM | – | < 100 nM | – | – | < 100 nM
